From PubChem BioAssay AID1259407 (Chemical Carcinogenesis Research Information System (CCRIS), 2018)
The source made the active and inactive calls. How the calls were made is not given here.

System: CCRIS mutagenicity, Ames/micronucleus/aberration tests
Test: CCRIS mutagenicity studies
[1] = Test System: AMES SALMONELLA TYPHIMURIUM, Strain/Indicator: TA100, Metabolic Activation: NONE, Method: PREINCUBATION
[2] = Test System: E. COLI, Strain/Indicator: WP2 UVRA, Metabolic Activation: NONE, Method: PREINCUBATION
[3] = Test System: AMES SALMONELLA TYPHIMURIUM, Strain/Indicator: TA98, Metabolic Activation: NONE, Method: STANDARD PLATE
[4] = Test System: AMES SALMONELLA TYPHIMURIUM, Strain/Indicator: TA98, Metabolic Activation: RAT, LIVER, S-9, AROCLOR 1254, Method: STANDARD PLATE
[5] = Test System: AMES SALMONELLA TYPHIMURIUM, Strain/Indicator: TA100, Metabolic Activation: NONE, Method: STANDARD PLATE
[6] = Test System: AMES SALMONELLA TYPHIMURIUM, Strain/Indicator: TA100, Metabolic Activation: RAT, LIVER, S-9, AROCLOR 1254, Method: STANDARD PLATE
[7] = Test System: AMES SALMONELLA TYPHIMURIUM, Strain/Indicator: TA1537, Metabolic Activation: RAT, LIVER, S-9, AROCLOR 1254, Method: STANDARD PLATE

In the case of `F[B-](F)(F)F`, the mutagenic call (Test System: AMES SALMONELLA TYPHIMURIUM, Strain/Indicator: TA98, Metabolic Activation: NONE, Method: PREINCUBATION) was “inactive; negative”, the mutagenic call (Test System: AMES SALMONELLA TYPHIMURIUM, Strain/Indicator: TA98, Metabolic Activation: RAT, LIVER, S-9, KC 500, Method: PREINCUBATION) was “inactive; negative” and the mutagenic call [1] was “inactive; negative”. For the same compound, the mutagenic call (Test System: AMES SALMONELLA TYPHIMURIUM, Strain/Indicator: TA100, Metabolic Activation: RAT, LIVER, S-9, KC 500, Method: PREINCUBATION) was “inactive; negative”, the mutagenic call (Test System: AMES SALMONELLA TYPHIMURIUM, Strain/Indicator: TA1535, Metabolic Activation: NONE, Method: PREINCUBATION) was “inactive; negative” and the mutagenic call (Test System: AMES SALMONELLA TYPHIMURIUM, Strain/Indicator: TA1535, Metabolic Activation: RAT, LIVER, S-9, KC 500, Method: PREINCUBATION) was “inactive; negative”. For the same compound, the mutagenic call (Test System: AMES SALMONELLA TYPHIMURIUM, Strain/Indicator: TA1537, Metabolic Activation: NONE, Method: PREINCUBATION) was “inactive; negative”, the mutagenic call (Test System: AMES SALMONELLA TYPHIMURIUM, Strain/Indicator: TA1537, Metabolic Activation: RAT, LIVER, S-9, KC 500, Method: PREINCUBATION) was “inactive; negative” and the mutagenic call (Test System: AMES SALMONELLA TYPHIMURIUM, Strain/Indicator: TA1538, Metabolic Activation: NONE, Method: PREINCUBATION) was “inactive; negative”. For the same compound, the mutagenic call (Test System: AMES SALMONELLA TYPHIMURIUM, Strain/Indicator: TA1538, Metabolic Activation: RAT, LIVER, S-9, KC 500, Method: PREINCUBATION) was “inactive; negative”, the mutagenic call [2] was “inactive; negative” and the mutagenic call (Test System: E. COLI, Strain/Indicator: WP2 UVRA, Metabolic Activation: RAT, LIVER, S-9, KC 500, Method: PREINCUBATION) was “inactive; negative”.

In the case of `O=[N+]([O-])[C-]1CCCC1`, the mutagenic call [1] was “active; positive”, the mutagenic call (Test System: AMES SALMONELLA TYPHIMURIUM, Strain/Indicator: TA100, Metabolic Activation: RAT, LIVER, S-9, AROCLOR, Method: PREINCUBATION) was “active; positive” and the mutagenic call (Test System: AMES SALMONELLA TYPHIMURIUM, Strain/Indicator: TA102, Metabolic Activation: NONE, Method: PREINCUBATION) was “active; positive”. For the same compound, the mutagenic call (Test System: AMES SALMONELLA TYPHIMURIUM, Strain/Indicator: TA102, Metabolic Activation: RAT, LIVER, S-9, AROCLOR, Method: PREINCUBATION) was “active; positive”.

For `O=C1CCC2(O)c3c(ccc(O)c31)-c1ccc(O)c3c1C2C1OC1C3=O` (configuration not stated), the mutagenic call [3] was “active; positive”, the mutagenic call [4] was “active; positive” and the mutagenic call [5] was “active; positive”. For the same compound, the mutagenic call [6] was “active; positive”, the mutagenic call (Test System: AMES SALMONELLA TYPHIMURIUM, Strain/Indicator: TA1537, Metabolic Activation: NONE, Method: STANDARD PLATE) was “active; positive” and the mutagenic call [7] was “active; positive”.

With `Cn1cnc(-c2ccccc2)c1N=O` the mutagenic call [5] was “active; positive”.

For `O=S(=O)(O)N(S(=O)(=O)O)S(=O)(=O)O`, the mutagenic call (Test System: AMES SALMONELLA TYPHIMURIUM, Strain/Indicator: G46, Metabolic Activation: RAT, LIVER, S-9, AROCLOR 1254, Method: STANDARD PLATE) was “inactive; negative” and the mutagenic call [6] was “inactive; negative”.

With `COC1C2C(=O)C34C(=O)c5c(O)cc(C)cc5C(=O)C35C3C(=O)C46C(=O)c4c(O)cc(C)cc4C(=O)C26C(C3OC)C15` (configuration not stated) the mutagenic call [4] was “inactive; negative”, the mutagenic call [6] was “inactive; negative” and the mutagenic call [7] was “inactive; negative”.

For `CCCCN(N=O)C(=O)NC`, the mutagenic call [2] was “active; positive” and the mutagenic call (Test System: E. COLI, Strain/Indicator: WP2 UVRA, Metabolic Activation: RAT, LIVER, S-9, PHENOBARBITAL AND 5,6-BENZOFLAVONE, Method: PREINCUBATION) was “active; positive”.

In the case of `ClCc1cc2cccc3ccc4c5ccccc5cc1c4c32`, the mutagenic call [3] was “active; positive” and the mutagenic call [5] was “active; positive”.
